Assay results reported in paper PMC6458850, “CXXC5 mediates growth plate senescence and is a target for enhancement of longitudinal bone growth” (Life Science Alliance, 2019).

Experiments:
[1] = In vivo pharmacokinetics of KY19382; conditions: SD male rat; for AUC(0-t): 0 to 24 hour
Method: Animal studies were approved by the Institutional Animal Care and use committee at KRIBB. Briefly, specific pathogen-free male Sprague−Dawley (SD) rats (10 weeks old, body weight 298−315 g), purchased from Koatech Co. […] Dosing solutions were prepared in dimethylacetamide (DMAC)/polyethylene glycol 400 (PEG400) (20/80, v/v %) for administrations, and administered at dosing volumes of 5 and 10 ml/kg for iv and ip, respectively. A 100 μl aliquot of each plasma sample was prepared, and three volumes of ice-cold acetonitrile containing carbamazepine (internal standard) were added. The mixture was centrifuged at 910 g for 10 minutes, and the supernatant was subjected to LC−MS/MS analysis. Pharmacokinetic parameters were calculated by standard noncompartmental analysis of plasma concentration−time profiles using Kinetica 4.4.1 (Thermo Fisher Scientific, Inc., Woburn, MA, USA). The areas under the plasma concentration−time curves (AUC) were calculated by the linear−trapezoidal method. Systemic plasma clearance (CLP) was calculated as follows: CLP = dose/AUCinf. Terminal elimination half-life (t1/2) was calculated by the following equation: t1/2 = 0.693/λZ where λZ is the terminal disposition rate constant. Volume of distribution at steady state (VSS) was calculated as follows: VSS = dose × AUMCinf/(AUCinf)^2, where AUMCinf is the area under the first moment of the plasma concentration−time curve extrapolated to infinity. Bioavailability (F) was calculated as follows: F (%) = (AUCip/AUCiv)(doseiv/doseip) × 100.
Pharmacokinetic parameters were based on the mean plasma concentration-time profiles of SD male rat (n=3). Pharmacokinetic parameters were obtained by non-compartmental analysis of the plasma concentration-time profiles using KineticaTM 4.4.1 (Thermo Fisher Scientific, Inc., Woburn, MA, USA). AUClast was calculated from 0 to 24 hour. IV, intravenous; IP, intraperitoneal; Tmax, Time to maximum plasm concentration; Cmax, Maximum plasma concentration after intraperitoneal injection; AUC, Area under the curve; CL, clearance; Vss, Volume of distribution at steady state; T1/2, Elimination half-life; F, bioavailability.

tibial growth plate = assay: Estrogen-induced growth plate senescence in Cxxc5+/+ and Cxxc5−/− mice; type: in vivo, mouse; conditions: E2 cypionate 70 μg/kg i.m. once a week for 3 wk
Method: Figure 2. The effects of estrogen on CXXC5 expression and the mediation of growth plate senescence. (A) Immunoblotting (upper) and quantitative analyses (mean ± SEM, n = 3) (lower) in C28/I2 cells treated with 100 nM E2 (17β-estradiol) for 0, 1, 3, 6, 24, 48, or 72 h. (B) Immunocytochemical staining (left) and quantitative analyses of the fluorescent intensity (mean ± SEM, n = 3; t test, **P < 0.005 and ***P < 0.0005) (right) in C28/I2 cells treated with 100 nM E2 for 40 h. Scale bars, 100 μm. (C–E) Tibial organ cultures (E15.5) incubated with 100 nM E2 for 6 d. Representative images at 6 d (C, left) and quantitative analyses of the growth changes (mean ± SEM, n = 5; t test, ***P < 0.0005) (C, right). Scale bar, 1 mm. H&E staining (D, left) and quantification of each zone height (mean ± SEM, n = 5; t test, *P < 0.05 and **P < 0.005) (D, right) in the growth plate. Scale bar, 200 μm. IHC analyses of β-catenin and CXXC5 (E). Scale bars, 50 μm. (F) 3-wk-old Cxxc5^+/+ and Cxxc5^−/− mice were treated with E2 cypionate (70 μg/kg) by i.m. injection once a week for 3 wk (n = 3–4). Representative images of H&E staining and IHC analyses for BrdU, β-catenin, and CXXC5 in the growth plates of proximal tibiae are shown. The area within the dashed lines indicates the growth plate zone. Black and white scale bars, 50 μm. Yellow scale bar, 20 μm. RZ, resting zone; PZ, proliferative zone; HZ, hypertrophic zone. […]

[2] = Sprague-Dawley, plasma, IP, 5 mg/kg, mean
[3] = Sprague-Dawley, plasma, IV, 1 mg/kg, mean

| SMILES | CL ([1]; IP, 5 mg/kg, mean) [mL/min/kg] | bioavailability ([1]; Sprague-Dawley, plasma, intraperitoneal, IP 5 mg/kg vs IV 1 mg/kg, read-out: F (intraperitoneal bioavailability)) [%] | Cmax [1, 2] [ng/mL] | Tmax [1, 2] [h] | half-life [1, 2] [h] | AUC(0-t) [1, 2] [ng·h/mL] | clearance [1, 3] [mL/min/kg] | half-life [1, 3] [h] | AUC(0-t) [1, 3] [ng·h/mL] | Vd ([1]; Sprague-Dawley, plasma, IV, 1 mg/kg, mean, read-out: Vss) [L/kg] | structural senescence of the tibial growth plate (tibial growth plate) |
| --- | --- | --- | --- | --- | --- | --- | --- | --- | --- | --- | --- |
| CON=C1C(=C2C(=O)Nc3cc(Cl)c(Cl)cc32)Nc2ccccc21 [KY19382, 5,6-dichloroindirubin-3′-methoxime] | 7.83 | 16.7 | 463 | 1 | 16.2 | 6560 | 2 | 3.33 | 7830 | 0.33 | – |
| C[C@]12CC[C@@H]3c4ccc(O)cc4CC[C@H]3[C@@H]1CC[C@@H]2O [E2, 17β-estradiol] | – | – | – | – | – | – | – | – | – | – | hardly observed |
